The record followed here is the supplement of paper PMC10307832.

Holding throughout (experiment): relative viability (nuclei count vs DMSO), 5 days (fraction); higher = more cells survive
Compound in the experiment “AZ505 + Alpelisib”: C1CCC(CC1)N(CCNCCC2=C3C(=C(C=C2)O)NC(=O)CO3)C(=O)CCNCCC4=CC(=C(C=C4)Cl)Cl [AZ505] + Cc1nc(NC(=O)N2CCC[C@H]2C(N)=O)sc1-c1ccnc(C(C)(C)C(F)(F)F)c1 [Alpelisib] (partner 2 µM)
In short, it runs like this:
(§1)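 Medians of duplicate plates are given as relative viability. That measure is the nuclei count in treated wells divided by the count in vehicle wells. Counts were taken on 4× images of lung cancer cell lines in 1536-well plates, 5 days after pin-tool dosing the day after seeding with one drug alone or a fixed anchor-drug dose plus five library-drug doses (not always all listed) in √10 steps.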

Compound in the experiment “AZ505 + Tozasertib”: C1CCC(CC1)N(CCNCCC2=C3C(=C(C=C2)O)NC(=O)CO3)C(=O)CCNCCC4=CC(=C(C=C4)Cl)Cl [AZ505] + Cc1cc(Nc2cc(N3CCN(C)CC3)nc(Sc3ccc(NC(=O)C4CC4)cc3)n2)n[nH]1 [Tozasertib] (partner 0.1 µM)
In short, it runs like this: as §1

Compound in the experiment “AZ505 + Dasatinib”: C1CCC(CC1)N(CCNCCC2=C3C(=C(C=C2)O)NC(=O)CO3)C(=O)CCNCCC4=CC(=C(C=C4)Cl)Cl [AZ505] + Cc1nc(Nc2ncc(C(=O)Nc3c(C)cccc3Cl)s2)cc(N2CCN(CCO)CC2)n1 [Dasatinib] (partner 0.075 µM)
Summed up: as §1

Compound in the experiment “AZ505 + Crizotinib”: C1CCC(CC1)N(CCNCCC2=C3C(=C(C=C2)O)NC(=O)CO3)C(=O)CCNCCC4=CC(=C(C=C4)Cl)Cl [AZ505] + C[C@@H](Oc1cc(-c2cnn(C3CCNCC3)c2)cnc1N)c1c(Cl)ccc(F)c1Cl [Crizotinib] (partner 1 µM)
In short, it runs like this: as §1

On to UMC-11, for which the relative viability amounted to 0.936 with AZ505 + Alpelisib (first compound 0.08 µM); 1.13 with AZ505 + Alpelisib (first compound 0.253 µM); 0.899 with AZ505 + Alpelisib (first compound 0.8 µM); 0.827 in the experiment with AZ505 + Alpelisib (first compound 2.53 µM); 1.04 with AZ505 + Alpelisib (first compound 8 µM); 0.189 with AZ505 + Tozasertib (first compound 0.08 µM). The relative viability was determined as 0.206 with AZ505 + Tozasertib (first compound 0.253 µM); 0.188 in the experiment with AZ505 + Tozasertib (first compound 0.8 µM); 0.196 in the experiment with AZ505 + Tozasertib (first compound 2.53 µM); 0.205 with AZ505 + Tozasertib (first compound 8 µM); 0.444 with AZ505 + Dasatinib (first compound 0.08 µM); 0.459 with AZ505 + Dasatinib (first compound 0.253 µM). The relative viability in the experiment with AZ505 + Dasatinib (first compound 0.8 µM) is 0.458; with AZ505 + Dasatinib (first compound 2.53 µM) it was 0.472; with AZ505 + Dasatinib (first compound 8 µM), 0.658; with AZ505 + Crizotinib (first compound 0.08 µM) it was 0.537; with AZ505 + Crizotinib (first compound 0.253 µM) it was 0.588; with AZ505 + Crizotinib (first compound 0.8 µM) it was 0.639. Moreover, the relative viability with AZ505 + Crizotinib (first compound 2.53 µM) amounted to 0.709; in the experiment with AZ505 + Crizotinib (first compound 8 µM), 0.573.
